Here are results for three substances from PMC8036666, “Biological and Physico-Chemical Characteristics of Arginine-Rich Peptide Gemini Surfactants with Lysine and Cystine Spacers” (International Journal of Molecular Sciences, 2021).

For series [1], the system named is Pseudomonas aeruginosa ATCC 9027. More on the design: method as in PMID 31581500. To be noted: biofilm, previous study ref 65; cited from earlier work.
For series [2], the system named is E. coli ML-35 (ATCC 43827). The source says:
(§1) The permeabilization of E. coli ML-35 (ATCC 43827) membranes was studied for selected compounds (A4, B2, C2, B7, and C7) to compare their activity and membrane disruption over time. […] For OM and IM permeabilization, CENTA and ONPG were used, respectively. The permeabilization of OM causes the release of periplasmic β-lactamase, which hydrolyzes CENTA’s β-lactam ring to form a chromophore, 2-nitro-5-thiobenzoate (TNB) anion, while the disruption of IM results in the release of β-galactosidase, which hydrolyzes ONPG into galactose and a chromophore, ortho-nitrophenol (ONP). Both products of enzymatic reaction absorb light at 405 nm.
The MICs were determined by the broth microdilution method according to the Clinical and Laboratory Standard Institute guidelines. For this purpose, initial inoculums of bacteria (5 × 10^5 CFU/mL) in MHB and yeasts (2 × 10^3 CFU/mL) in RPMI-1640 with 2% D-glucose were exposed to the ranging concentration of lipopeptides (0.5–256 μg/mL) and incubated at 37 °C for 18 h and 24 h, respectively. The experiments were conducted on 96-well microtiter polystyrene plates (Kartell, Noviglio, Italy). The growth was assessed visually after incubation, and the MIC was assumed as the lowest peptide concentration at which a noticeable growth of microorganisms was inhibited. All experiments were conducted in triplicate.
Inner and outer membranes permeabilization kinetics were evaluated using Escherichia coli ML-35 (ATCC 43827) and chromogenic substrates—CENTA (BioVision, Milpitas, CA, USA) and o-nitrophenyl-β-d-galactopyranoside (ONPG) (Sigma-Aldrich, Steinheim, Germany), as described previously. To examine OM permeabilization, CENTA was used as a β-lactamase substrate. In effect of OM permeabilization, the enzyme can hydrolyze CENTA’s β-lactam ring. The resulting color change (2-nitro-5-thiobenzoate anion, TNB^-) could be measured spectrophotometrically at 405 nm. The IM permeabilization was monitored with ONPG, which is a chromogenic β-galactosidase substrate. The product of this reaction ([…]) was measured spectrophotometrically at 405 nm (Multiskan GO Microplate Spectrophotometer, Thermo Fisher Scientific, Vantaa, Finland). […] Bacteria were incubated in lysogeny broth medium (LB; Biocorp, Warszawa, Poland) for 24 h at 37 °C. Subsequently, the cells were diluted in a fresh LB medium and incubated at 37 °C up to a mid-log phase (ca. 3 h). The culture was centrifuged (3 min, 1100× g) and rinsed twice with a PBS. The bacteria were resuspended in PBS up to a concentration of 5 × 10^6 CFU/mL. The final concentration of ONPG and CENTA was 1.5 mM and 0.15 mM, respectively. The ONPG/CENTA in PBS (Sigma-Aldrich, Steinheim, Germany) was used as a negative control. […] Readings were taken every 15 min for 3 h at 37 °C [125, 142, 143, 144]. Experiments were performed in triplicate on 96-well flat bottom microtiter polystyrene plates.

Series [3] concerns E. coli ML-35 (ATCC 43827). The series can be described thus: Outer membrane (OM) permeabilization kinetics, CENTA. In kind it is cell-based, Escherichia coli. The note with it: over 3 h, 2 µg/mL (MIC).
From the text: as §1
Inner and outer membranes permeabilization kinetics were evaluated using Escherichia coli ML-35 (ATCC 43827) and chromogenic substrates—CENTA (BioVision, Milpitas, CA, USA) and o-nitrophenyl-β-d-galactopyranoside (ONPG) (Sigma-Aldrich, Steinheim, Germany), as described previously. To examine OM permeabilization, CENTA was used as a β-lactamase substrate. In effect of OM permeabilization, the enzyme can hydrolyze CENTA’s β-lactam ring.

The test system of series [4] is Staphylococcus aureus ATCC 25923. Details: method as in PMID 31581500. To be noted: planktonic culture, previous study ref 65; cited from earlier work.

For the substance C12-KKC-NH2 [Compound C12-KKC-NH2], in series [1], the “MBEC P. aeruginosa ATCC 9027” value is above 512.

With polymyxin B [reference compound], in series [2], the “MIC E. coli ML-35 (ATCC 43827)” value was 2 µg/mL. The “increase of absorbance at 405 nm, OM permeabilization” value in series [3] was “ca. 0.25 AU”.

C14-KKC-NH2 [Compound C14-KKC-NH2]: in series [4], the “MIC S. aureus ATCC 25923” value is listed as 32 µg/mL.
